Measured values taken from patent publication US6713512B1, “Uses of kombic acid as an anticancer and cholesterol-lowering agent” (priority 2001, dated 2004).
Values after ≈ are worked out from the molar mass of the structure shown. Values joined by “and” are separate entries in the source; they are usually repeats but may differ in a detail not shown here. Identical values can stand only once. Like-named read-outs stand apart in the source and are kept apart here.

Assays:
[1] = test system: Rat liver microsomes lipid peroxidation; assay: Lipid peroxidation in rat liver microsomes induced by ascorbic acid and ferrous sulfate (MDA/thiobarbituric acid); format: biochemical; details: for IC50: concentration required to inhibit lipid peroxidation by 50%, obtained by plotting
Protocol: Rat liver microsomes, previously incubated with or without inhibitor, were treated with ascorbic acid and ferrous sulfate to induce lipid peroxidation. The extent of lipid peroxidation was determined by the amount of malondialdehyde produced, which was determined by reaction with thiobarbituric acid.
Biological specimens contain a mixture of thiobarbituric acid reactive substances (TBARS), including lipid hydroperoxides and aldehydes, which increase as a result of oxidative stress. TBARS return to normal levels over time, depending upon the presence of antioxidants. In practice, TBARS are expressed in terms of malondialdehyde (MDA) equivalents. In this assay, an MDA standard is used to construct a standard curve against which unknown samples can be plotted. The presence of this compound is measured by fluorometry or spectrophotometry.

[2] = test system: Human low density lipoprotein; assay: Copper-induced lipid peroxidation of human low density lipoprotein (MDA/thiobarbituric acid); format: biochemical; details: for IC50: 10 μM copper; for antioxidant activity compared with natural vitamin E: result in words
Protocol: Human low density lipoprotein was dialyzed, incubated with or without inhibitor, and then treated with 10 μM copper to induce lipid peroxidation for several hours. The extent of lipid peroxidation was determined by the amount of malondialdehyde produced, which was determined by reaction with thiobarbituric acid as described above.

[3] = Oxygen Stability Index of edible oil; format: physicochemical; details: for antioxidant effectiveness in edible oil: result in words; for Hours to end-point: 110° C.
Protocol: The Oxygen Stability Index is used to measure the effectiveness of antioxidants in the stabilization of edible oils against oxidative degradation. The “Hours to end-point” indicate when a time/conductivity curve changes shape, with a sharp slope upturn at that time point. The temperature of the test, which measures conductivity of a solution into which oxidation products from the oil being tested is passed, is 110° C.

[4] = test system: Ehrlich carcinoma, sarcoma 180, implanted murine carcinoma (IMC) tumors, Meth-A fibrosarcoma; assay: Survival of mice bearing tumor cells; format: in vivo; details: injected intraperitoneally
Text: Such mice bearing tumor cells include, but are not limited to Ehrlich carcinoma, sarcoma 180, or implanted murine carcinoma (IMC) tumors, Meth-A fibrosarcoma or other tumors.

[5] = test system: MDA-MB-435 estrogen receptor-negative human breast cancer cells; assay: [3H] thymidine incorporation, estrogen receptor-negative cells; format: cell-based
Protocol: Human cancer cells, such as, but not limited to, MDA-MB-435 estrogen receptor-negative human breast cancer cells are incubated in the presence of varying concentrations of kombic acid or its derivatives. The incorporation of [^3H] thymidine into the DNA of the cells is measured.

[6] = test system: MCF-7 estrogen receptor-positive human breast cancer cells; assay: Proliferation of estrogen receptor-positive cells; format: cell-based; details: alone
Protocol: Human breast cancer cells are incubated in the presence and absence of kombic acid and its derivatives individually. The IC50 (the concentration of Kombic Acid or its derivatives required to inhibit cell proliferation by 50%) is then determined.

MCF-7 cells = assay: Effect of excess estrogen on inhibition in steroid-depleted cells; format: cell-based, human; details: presence of estradiol
Text: The effect of Kombic Acid and its derivatives on the estrogen receptor is investigated. Human cancer cells in culture, such as, but not limited to, MCF-7 cells are depleted of steroids and treated with Kombic Acid, its derivatives, tocotrienols, or tamoxifen (used as a positive control) in the presence or absence of estradiol.

PKC = assay: Protein kinase C activity; format: biochemical
[7] = test system: PAP2 (ras-transformed NIH 3T3 mouse fibroblasts) cells; assay: Proliferation of PAP2 cells; format: cell-based
[8] = Cholesterol lowering in animal models; format: in vivo
Text: (§1) Hypercholesterolemia associated with elevated LDL (low-density lipoprotein) cholesterol is a risk factor for CHD (coronary heart disease). LDL-cholesterol combined with oxidative stress can contribute to the formation and development of atherosclerotic plaques. To lower the risk of CHD, antioxidants such as Kombic Acid and its derivatives counteract LDL oxidation.

[9] = Plasma cholesterol and apoB in humans; format: in vivo
Text: as §1

HepG2 cells = assay: Medium apoB of LDL-like lipoprotein secreting cells (ELISA); format: cell-based; details: nontoxic concentrations, serum-free medium
Protocol: The apoB-lowering potential of Kombic Acid and its derivatives is evaluated in cells that secrete and catabolize lipoproteins similar to LDL, for example, but not limited to HepG2 cells. Confluent cells are preincubated in serum-free medium, which inhibits cell proliferation and stimulates biosynthesis of LDL-like lipoproteins. They are subsequently incubated in the same medium in the presence or absence of Kombic Acid or its derivatives at the range of nontoxic concentrations. For each compound, the highest nontoxic concentration is predetermined by a viability assay, such as but not limited to the 3-(4,5-dimethylthiazol-2-yl)-2,5-diphenyltetrazolium bromide (MTT) viability assay. At the end of the incubation, changes in medium concentration of apoB B are evaluated by ELISA and compared with changes induced in the absence of kombic acid or its derivatives.

[10] = inhibitor concentration 0.156 μg/mL
[11] = inhibitor concentration 0.313 μg/mL
[12] = inhibitor concentration 0.625 μg/mL
[13] = inhibitor concentration 0.625 μg/mL, peroxidation (nmoles MDA) with inhibitor divided by without
[14] = read-out: IC50: mean +/− Standard Deviation
[15] = individual determinations, read-out: IC50: data

Compound	IC50 [1] [µg/mL]	% Inhibition [1, 10] [%]	Remaining lipid peroxidation (fraction of control) [1, 10]	% Inhibition [1, 11] [%]	Remaining lipid peroxidation (fraction of control) [1, 11]	% Inhibition [1, 12] [%]	Remaining lipid peroxidation (fraction of control) [1, 13]	IC50 [2, 14] [µM]	IC50 [2, 15]	antioxidant activity compared with natural vitamin E [2]	antioxidant effectiveness in edible oil [3]	reversal of inhibition by excess estrogen (MCF-7 cells)	other results
CC(=CCCC(C)=CCc1cc(O)cc(C)c1O)CCC=C(C)CCC=C(C)C(=O)O [Kombic Acid, 16(2′,5′-dihydroxy-3′-methylphenyl)-2,6,10,14-tetramethyl-2,6,10,14-hexadecatetraenoic acid]	0.20 (≈ 0.469 µM)	36	0.64	89	0.11	90	0.10	5.2	7.8 µM and 2.1 µM and 2.2 µM and 8.5 µM and 5.2 µM	no significant difference in antioxidant activity	effective antioxidants	does not reverse the inhibition	antioxidant activity ([1]; result in words): very strong antioxidant activity; Hours to end-point ([3]; soybean oil + 40 ppm): 8.35 h and 8.85 h; Hours to end-point ([3]; soybean oil + 300 ppm): 15.55 h and 15.40 h; life of mice bearing tumor cells [4]: prolong the life of mice bearing tumor cells; proliferation ([3H] thymidine incorporation) ([5]; alone): inhibit the proliferation of these cells; interaction with tamoxifen ([5]; with tamoxifen): can act synergistically with tamoxifen; cell proliferation [6]: can inhibit the proliferation; PKC activity (PKC): inhibitors of PKC activity; cell proliferation [7]: inhibit the proliferation of these cells; cholesterol-lowering effects [8]: produce cholesterol-lowering effects in animal models; plasma total and LDL cholesterol and apoB [9]: effective in reducing elevated plasma levels of total and LDL cholesterol as well as plasma apolipoprotein B (apoB) concentrations; medium apoB (HepG2 cells): dose-dependent reduction of medium apoB B
CC(C)(C)c1cc(O)ccc1O [TBHQ, tributyl-tert-hydroquinone, reference compound]											effective antioxidants		Hours to end-point ([3]; soybean oil + 200 ppm): 21.10 h and 19.85 h
Cc1c(C)c2c(c(C)c1O)CC[C@@](C)(CCC[C@H](C)CCC[C@H](C)CCCC(C)C)O2 [d-α-tocopherol, reference compound]								4.6	5.1 µM (2×) and 3.5 µM				
Cc1c(C)c2c(c(C)c1O)CCC(C)(CCCC(C)CCCC(C)CCCC(C)C)O2 (racemic) [dl-α-tocopherol, reference compound]	0.31 (≈ 0.72 µM)	8	0.92	50	0.50	66	0.34			inhibit peroxidation equally as well as natural (d) vitamin E			
tocotrienols												does not reverse the inhibition	
CC/C(=C(\c1ccccc1)c1ccc(OCCN(C)C)cc1)c1ccccc1 [tamoxifen]												does reverse the inhibition	
